Test results from PMC12018770, “DEAD‐Box Helicase 6 Blockade in Brain‐Derived Aβ Oligomers From Alzheimer's Disease Patients Attenuates Neurotoxicity” (MedComm, 2025).
“Also recorded” adds a separate entry of the source.

Key:
[1] = system: Aβ42 oligomers; assay: Binding of biotin‐labeled short peptides to Aβ42 oligomers; conditions: biotin-labeled peptide probes; bands at 30 and 10 kDa for binders
Protocol: We characterized the molecular mechanisms by which DDX6 influences Aβ oligomer neurotoxicity using real‐time quaking‐induced conversion (RT‐QuIC) to determine whether DDX6 promotes the formation of Aβ fibrillar plaques and oligomers. […] Next, we performed dot blotting assays (Figure 7D,E) on the four treatment groups using the A11 antibody. […] We also assessed the cytotoxic effects of the four treatment groups on HT‐22 cell cultures using CCK‐8 assays. […] Specific gray values were calculated using Total Lab 100 (Nonlinear Dynamics, Newcastle upon Tyne, UK).
(A) Cell counting kit‐8 (CCK‐8) cytotoxicity assay (n = 3). […] Total Lab 100 analysis software was used to calculate the percentage of gray values for 157 polypeptide spots.
The Aβ42 peptide was obtained from Abcam (#ab120301, USA). Aβ42 was solubilized using 1 mM hexafluoroisopropanol (#105228; Sigma‐Aldrich, Germany) and evaporated overnight in a desiccator to form a dry film. The film was then dissolved in dimethyl sulfoxide (#D8418; Sigma‐Aldrich) to a concentration of 5 mM, mixed with phosphate‐buffered saline, and incubated for 72 h at 4°C. The GST‐DDX6 protein was synthesized by KMD Bioscience Biotech Co., Ltd. (Tianjin, China). The biotin‐labeled short peptide was synthesized by Hubei Qiangyao Biotechnology Co., Ltd. (Hubei, China).

[2] = system: Aβ42 oligomers; assay: Peptide chip microarray of DDX6 peptides (1–157) with Aβ42 oligomers; conditions: Aβ oligomers 2.0 µg/mL, overnight 4°C; ECL; > 30% indicates effective binding site; Total Lab 100
[3] = system: human‐derived Aβ oligomers; assay: Co-immunoprecipitation / Western blotting of protein-Aβ oligomer interaction in AD brain extracts; type: binding; conditions: IgG isotype control
From the text: After rigorous data analysis with SAINTexpress, four proteins (DDX6, DSP, JUP, and HRNR) were identified as potential Aβ oligomer‐binding partners. To validate these findings, we selected DSP and DDX6 as positive controls for co‐IP analysis; tau proteins were used as negative controls. Input samples, IP, co‐IP extracts, and IgG controls were adjusted to ensure equal amounts of protein for comparison. […] The IP enrichment effect was substantial for Aβ oligomers, DDX6, DSP, and tau proteins. In the co‐IP extracts for DDX6 and DSP, Aβ oligomers were detected at approximately 55 and 30 kDa, respectively (indicated by “ [drawing 1] ”). […] Isotype control IgG was used to exclude nonspecific binding (Figure 2A).
A Co‐IP kit (Thermo Fisher Scientific; #26149, USA) was used for the assay. Antibodies (2 µg) were crosslinked to a reinforced AminoLink coupling resin (20 µL of beads) and immobilized on a Pierce spin column at room temperature. Protein extracts (1 mg) were added to the spin column and incubated overnight at 4°C with rotation. The spin column was then transferred to a new collection tube, and 60 µL of elution buffer (pH 2.8, containing tertiary amine) was added. The column was centrifuged, and the eluate was analyzed to detect the presence of the target protein.
Protein concentrations in the co‐IP extracts were measured using a bicinchoninic acid assay (#23225, Thermo Fisher Scientific, USA). For each sample, 20 µL of protein was loaded, with the following amounts of human‐derived Aβ oligomers (AD1–AD6) used: 1.8 µg, 2.0 µg, 1.9 µg, 1.6 µg, 2.0 µg, and 1.8 µg, respectively. Equivalent amounts of co‐IP extracts were loaded into the remaining lanes. A 5× loading buffer was added to the protein samples to achieve a final concentration of 1×, and the samples were incubated at 95°C for 5 min [44]. […]
B. The PVDF membrane was probed with the Aβ oligomer antibody (A11), indicating enrichment of Aβ oligomers (post-IP) with bands observed at 55 kDa and 30 kDa. Aβ oligomers were detected in the co-IP products of DDX6 (indicated by “✸”). […]

[4] = system: human‐derived Aβ oligomers; assay: AP-MS with SAINTexpress scoring of binding to human‐derived Aβ oligomers; conditions: score 0 to 1; criteria SAINT score > 0.5 and fold change ≥ 2; AD1–AD6, n = 6
From the text: Not all identified proteins bind to Aβ oligomers. Therefore, we used the SAINTexpress statistical method to screen for proteins most likely to interact with human‐derived Aβ oligomers. SAINTexpress assigns probability scores to factors interacting with target proteins, providing a value between 0 and 1, where higher scores indicate a greater likelihood of interaction with Aβ oligomers. Based on the analyzed results, we plotted the fold change on the x‐axis and SAINT scores on the y‐axis, with each point representing a protein. Proteins meeting the criteria of a SAINT score > 0.5 and fold change ≥ 2 were considered the most likely to bind Aβ oligomers (highlighted in red). Through rigorous analysis, we identified four proteins as binding partners (Figure 1C): DDX6 (SAINT score = 0.5783), DSP (SAINT score = 0.6608), JUP (SAINT score = 0.5846), and HRNR (SAINT score = 0.5246).
An aliquot of each peptide mixture was loaded onto a trap column (in‐house‐fabricated column packed with a reversed‐phase ReproSil‐Pur C18‐AQ resin, 150 µm × 15 cm, C18, 3 µm, 100 Å, Dr. Maisch GmbH, Germany) connected to an analytical column (EASY‐Spray column, […] × 75 µm ID, PepMap RSLC C18, 2 µm, 100 Å, Thermo Scientific, USA) using the autosampler of an EASY‐nLC 1200 HPLC system (Thermo Fisher Scientific). The peptides were eluted using a gradient (solvent A: 0.1% formic acid in water; solvent B: 80% acetonitrile/0.1% formic acid in water; Sigma, Germany) directly into a Q Exactive Hybrid Quadrupole‐Orbitrap mass spectrometer (Thermo Fisher Scientific). The gradient program was as follows: 4%–8% solvent B over 2 min, 8%–28% solvent B over 43 min, 28%–40% solvent B over 10 min, 40%–95% solvent B over 1 min, and 95% solvent B for 10 min. The following mass spectrometry parameters were used: spray voltage, 2.2 kV; capillary temperature, 270°C; MS resolution, 70,000 at 400 m/z; MS precursor m/z range, 300.0–1800.0 m/z; activation type, high‐energy collision dissociation; normalized collision energy, 28.0; activation time, […]; and data‐dependent MS/MS, top 20 most intense peptide ions selected based on the preview scan in the Orbitrap.
The raw MS files (Figure S5) were analyzed and searched against species‐specific protein databases using MaxQuant (v1.6.2.10). The following parameters were applied: maximum missed cleavages, 2; precursor ion mass tolerance, 20 ppm; and MS/MS tolerance, 20 ppm. Peptides and proteins were filtered to achieve a false discovery rate of < 1% using a target‐decoy database strategy, and only proteins with at least two unique peptides were reported. […] SAINT is a probabilistic method for scoring protein–protein interactions in AP‐MS experiments, enabling the identification of proteins most likely to interact with target proteins. […]

[5] = system: Aβ oligomers in AD brain; assay: IHC colocalization with Aβ oligomers in AD brain sections; design: species or system human; conditions: AD7–AD10, n = 4; fluorescence scan over 120 µm
From the text: To further validate the binding interactions between Aβ oligomers and the four proteins, we performed immunohistochemistry (IHC) on brain sections from four AD patients (AD7–AD10). We analyzed the colocalization of Aβ oligomers (red) with DDX6, JUP, HRNR, and DSP (all green), as well as 4',6‐diamidino‐2‐phenylindole (DAPI)‐stained nuclei (blue). […] We also performed fluorescence intensity scanning from left to right across stained brain tissue slices (120 µm). […] The combined results from co‐IP and IHC confirm that these four proteins can bind to Aβ oligomers.
Sections were dewaxed, subjected to antigen retrieval, and blocked. They were then incubated with primary antibody (1:500) overnight at 4°C, followed by secondary antibody (1:200). Nuclei were stained with DAPI (Beyotime; C1002, Shanghai, China) for 10 min in the dark.

[6] = system: AD patients; conditions: cited from earlier work

For DYCLKRELLMGIFEMGWE [34–45], which “interaction with Aβ42 oligomers” value [1] is on record?
Its value is “all four binding peptides interacted with Aβ oligomers”.

For GIDIQAVNVVINFDF [compound 133], which “interaction with Aβ42 oligomers” value [1] is on record?
Its value is “all four binding peptides interacted with Aβ oligomers”.

And the “gray value of spot on peptide array” value [2]?
The value was “exceeding 30%”.

For GKSGAYLIPLLERLD [compound 49], which “interaction with Aβ42 oligomers” value [1] is on record?
The value was “all four binding peptides interacted with Aβ oligomers”.

And the “gray value of spot on peptide array” value [2]?
Its value is “exceeding 30%”.

For IKPIPSNIDKSLYVAEYHSEPVED [153–156], which “interaction with Aβ42 oligomers” value [1] is on record?
Its value is “all four binding peptides interacted with Aβ oligomers”.

What about the “gray value of spot on peptide array” value [2] of the same molecule?
Its value is “exceeding 30%”.

For “KPYEINLMEELTLKG [control peptide, reference compound]”, which “interaction with Aβ42 oligomers” value [1] is on record?
Its value is “did not interact with Aβ oligomers”.

What does the source list for desmoplakin [DSP]?
binding to Aβ oligomers by co‐IP [3]: DDX6 and DSP were also detected in Aβ oligomer co‐IP extracts; also recorded: DSP was detected in the co-IP products of Aβ oligomers; SAINT score [4]: 0.6608; colocalization with Aβ oligomers [5]: strong colocalization

Which results are given for hornerin [HRNR]?
SAINT score [4]: 0.5246; colocalization with Aβ oligomers [5]: strong colocalization

With solanezumab [reference compound] as the molecule, how does the “efficacy in clinical trials (in words)” value ([6]; ref [11], [12], [13], [14]) read?
Its value is “failed to demonstrate efficacy in improving cognitive function during key clinical trials”.

For “tau: tau proteins were used as negative controls [reference compound]”, which “binding to Aβ oligomers by co‐IP” value [3] is on record?
Its value is “No apparent binding was observed; also recorded: tau was not detected in the co-IP products of Aβ oligomers”.

B1: lecanemab (antibody, chains of the INN, looked up, V domains shown)
VH: EVQLVESGGGLVQPGGSLRLSCSASGFTFSSFGMHWVRQAPGKGLEWVAYISSGSSTIYYGDTVKGRFTISRDNAKNSLFLQMSSLRAEDTAVYYCAREGGYYYGRSYYTMDYWGQGTTVTVSS
VL: DVVMTQSPLSLPVTPGAPASISCRSSQSIVHSNGNTYLEWYLQKPGQSPKLLIYKVSNRFSGVPDRFSGSGSGTDFTLRISRVEAEDVGIYYCFQGSHVPPTFGPGTKLEIK
For B1, which “brain shrinkage, share of AD patients” value ([6]; after 18 months of treatment, ref [16]) is on record?
Its value is “approximately 28%”.

What about the brain hemorrhage ([6]; early AD patients, ref [15]) of the same molecule?
The brain hemorrhage was 17.3%.

And the edema or effusion ([6]; early AD patients, ref [15])?
Its edema or effusion is 12.6%.

What about the headaches ([6]; early AD patients, ref [15]) of the same molecule?
The headaches was 11.1%.

What about the “delay of cognitive decline” value ([6]; early‐stage AD patients, ref [15]) of the same molecule?
The value was 27%.

What about the “severe side effects (in words)” value ([6]; some patients, ref [15], [16]) of the same molecule?
Its value is “severe side effects, including brain hemorrhage, brain shrinkage, and even death”.

B2: junction plakoglobin (protein)
chain: MEVMNLMEQPIKVTEWQQTYTYDSGIHSGANTCVPSVSSKGIMEEDEACGRQYTLKKTTTYTQGVPPSQGDLEYQMSTTARAKRVREAMCPGVSGEDSSLLLATQVEGQATNLQRLAEPSQLLKSAIVHLINYQDDAELATRALPELTKLLNDEDPVVVTKAAMIVNQLSKKEASRRALMGSPQLVAAVVRTMQNTSDLDTARCTTSILHNLSHHREGLLAIFKSGGIPALVRMLSSPVESVLFYAITTLHNLLLYQEGAKMAVRLADGLQKMVPLLNKNNPKFLAITTDCLQLLAYGNQESKLIILANGGPQALVQIMRNYSYEKLLWTTSRVLKVLSVCPSNKPAIVEAGGMQALGKHLTSNSPRLVQNCLWTLRNLSDVATKQEGLESVLKILVNQLSVDDVNVLTCATGTLSNLTCNNSKNKTLVTQNSGVEALIHAILRAGDKDDITEPAVCALRHLTSRHPEAEMAQNSVRLNYGIPAIVKLLNQPNQWPLVKATIGLIRNLALCPANHAPLQEAAVIPRLVQLLVKAHQDAQRHVAAGTQQPYTDGVRMEEIVEGCTGALHILARDPMNRMEIFRLNTIPLFVQLLYSSVENIQRVAAGVLCELAQDKEAADAIDAEGASAPLMELLHSRNEGTATYAAAVLFRISEDKNPDYRKRVSVELTNSLFKHDPAAWEAAQSMIPINEPYGDDMDATYRPMYSSDVPLDPLEMHMDMDGDYPIDTYSDGLRPPYPTADHMLA
What does the source list for B2?
SAINT score [4]: 0.5846; colocalization with Aβ oligomers [5]: strong colocalization
